According to patent publication US20100292229A1, “TRYPHOSTIN-ANALOGS FOR THE TREATMENT OF CELL PROLIFERATIVE DISEASES” (The Board of Regents of the University of Texas System, priority 2006, published 2010):
Blank lines part the entries; values can stand above or below the compound they belong to. Where a SMILES comes first, the peptide text is derived from it. The star is where a group is joined. Cbz = O=C(OCc1ccccc1)*

What was measured:
[1] = target: T1, nucleophosmin (NPM) (Homo sapiens, UniProt P06748); assay: Affinity recovery of Degrasyn interactive proteins with streptavidin beads; assay type: binding; details: MM-1 or K562 cell lysates
T1 construct: endogenous in cells; host or cells: MM-1 and K562 cell lysates
Experimental: Biotinylated-Degrasyn (10 μM) was incubated with lysates from MM-1 cells (10 mg total protein) and interactive proteins were assessed by affinity recovery using Streptavidin-conjugated beads to bind biotinylated-Degrasyn. Free Degrasyn (10 μM) was incubated with biotinylated-Degrasyn in a parallel experiment to assist in identifying specific protein:Degrasyn interactions. Affinity complexes were washed and Streptavidin-Bio-Deg interaction proteins were assessed by disrupting protein complexes with SDS-sample buffer and resolving proteins by SDS-PAGE. The resolved proteins were detected by silver-staining the gel. Protein bands present in the biotinylated-Degrasyn sample that were absent in samples co-incubated with free Degrasyn were identified and cut from the gel. A 38 kDa protein band was prominent in this assessment and was subjected to in gel trypsinization and identification of HPLC resolved tryptic peptides by tandem mass spectroscopy analysis (David Hawke, Department of Molecular Pathology, M.D. Anderson Cancer Center). This analysis identified nucleophosmin (NPM) as a Degrasyn interactive protein.
To further assess the interaction between NPM and Degrasyn, biotinylated-Degrasyn/streptavidin beads were incubated with MM-1 (left) or K562 (right) cell lysates. In parallel, lysates were co-incubated with free Degrasyn to determine the specificity of the interaction with NPM. […]

[2] = test system: K562 cells; assay: MTT assay of cell growth and survival, K562 cells; assay type: cell-based, human; details: FIG. 21; anti-tumor activity
Experimental: (§1) All compounds are tested for purity (HPLC, NMR) and the calculated molecular weight is used to make up a 10 mM stock solution of each compound (in 100% dimethylsulfoxide or 50% dimethylsulfoxide:50% polyethylene glycol 300). Compounds are diluted into cell culture media consisting of RPMI 1640 with 10% fetal bovine serum to a final starting concentration of 10 μM. [Highest final DMSO content=0.1%.]. Tumor cells (20,000 for non-adherent cells; 5,000 for adherent cells) are plated into individual wells of a 96-well culture plate in 0.1 ml of culture media. Diluted compounds are added to individual wells containing pre-plated cells (final volume 0.2 ml) and incubated at 37° C. for 24 to 72 h. Wells receiving vehicle alone acted as a control.
(§2) MTT (viability) assay. MTT reagent (20 μl of 5 mg/ml stock solution, Sigma) is added to the cells and the plates are incubated at 37° C. for another 2 h. Cells are lysed by adding 100 μl of lysis buffer (20% SDS in 50% N,N-dimethylformamide (Sigma) adjusted to pH 4.7 by 80% acetic acid and 1 M HCl such that the final concentration of acetic acid is 2.5% and HCl is 2.5%) into each well and incubated for 6 h. The OD570 of each sample is determined by using a SPECTRA MAX M2 plate reader (Molecular Devices). The OD in control and treated wells is used as an estimate of the effect of compounds on cell growth and survival.
Cell lines. […]

[3] = target: T2, c-myc (Homo sapiens, UniProt P01106); assay: c-myc protein immunoblot in MM-1 cells; assay type: cell-based; details: for Effect of inhibitor pretreatment on Degrasyn-mediated c-myc protein reduction: inhibitor 2 h, then 5 μM Degrasyn 2 h
T2 construct: endogenous in cells; host or cells: MM-1 cells
Experimental: Top: MM-1 cells were incubated with 5 μM Degrasyn for the interval noted before cell lysates were prepared and subjected to immunoblotting for c-myc and actin as a protein loading control.
Middle: MM-1 cells were treated with the indicated concentration of Degrasyn for 1 h before lysates were immunoblotted for c-myc and actin.
Bottom: MM-1 cells were treated as indicated before extraction of total RNA (TRIzol). RNA was resolved by agarose electrophoresis, transferred to a membrane and hybridized with a c-myc probe to determine the level of c-myc RNA in each sample. The ethidium bromide stained gel was photographed and 28S RNA content was detected as a measure of RNA content in each lane.
MM-1 cells were pretreated with protease/proteosome inhibitors (LLnL; LLnM; E-64d; MG132; PS341; Chloroquine; Ammonium Chloride; Cycloheximide) for 2 h before the addition of 5 μM Degrasyn or vehicle alone (DMSO as indicated) for an additional 2 h. Cell lysates were prepared and equal protein aliquots were subjected to immunoblotting for c-myc, Max (a c-myc binding partner) or actin as a protein loading control.
Pictured: MM-1 cells were treated with biotinylated Degrasyn (Bio-Deg) or Degrasyn (at the indicated concentration) for 1 h before analyzing effects on c-myc as described in FIG. 15.
(§3) Western Blot analysis. Cells were harvested, washed twice in cold 1×PBS and lysed in modified RIPA lysis buffer (150 mM NaCl, 1% NP-40, 0.5% Na-deoxycholate [DOC], 0.1% Na-dodecyl sulfate [SDS], 50 mM Tris-HCl (pH 7.5), 1 mM EDTA, 1 mM NaF, 2 mM Na-vanadate, with protease inhibitors (1 mM PMSF, 1 mM benzamidine, 10 μg/ml aprotinin, 10 μg/ml leupeptin) on ice for 30 min. The lysed cells were centrifuged at 13,000 rpm for 30 min and the supernatant collected. The protein concentration of the cell lysate was determined by the Bradford Protein Assay. Fifty to 60 μg of protein were resolved in a 10% SDS-PAGE, and transferred to a PVDF membrane. Western blotting was performed using specific primary antibodies Peroxidase-conjugated affiniPure anti-Mouse Anti-Rabbit secondary antibodies (Jackson Immunoresearch Laboratories, West Grove, Pa.). The proteins were visualized with ECL Plus reagents (Amersham Biosciences).

[4] = test system: MM-1 cells; assay: MTT assay of cell growth and survival, MM-1 cells; assay type: cell-based
Experimental: as §1, §2
Cell lines. […] A375 melanoma cells were grown and maintained in the same media. Ba/F3 parental cells were grown in RPMI 1640 containing 10% heat inactivated fetal bovine serum and 2 mM glutamine supplemented with IL-3 (1 ng/ml) while Ba/F3 cells stably expressing Bcr/Abl or the T315I mutant of Bcr/Abl were grown in RPMI 1640 containing 10% heat inactivated fetal bovine serum and 2 mM glutamine in the absence of IL-3. Normal human dermal fibroblasts (NHDF) were obtained from Cambrex (Walkersville, Md.) and grown in specially formulated media (obtained through Cambrex) with 20% fetal calf serum.
IC50 determinations. The anti-tumor activity of certain compounds of the present invention against MM-1 cell lines was investigated and the IC50 values calculated (FIGS. 33A-F). In a typical experiment, MM-1 cell lines were incubated with a range of compound concentrations for 72 h to determine the concentration required to inhibit cell growth or induce apoptosis by 50% (IC50). MTT assays as described above were used to conduct this analysis.

[5] = test system: p70 and p55 tyrosine phosphorylation; assay: Phosphotyrosine (4G10) immunoblot in B-cell malignancy cell lines; assay type: cell-based; details: 2 h; MM-1, LP or Mino cells
Experimental: MM-1 cells were pretreated with Degrasyn (at the concentration indicated) for 2 h before the addition of IL-6 for 15 min (as noted). Total cell lysates were prepared and equal protein aliquots were resolved by SDS-PAGE and immunoblotted for phosphotyrosine (4G10).
MM-1 and LP (lymphoma) cells were treated with Degrasyn (at the concentration indicated) for 2 h before cell lysates were prepared and equal protein aliquots were resolved by SDS-PAGE and immunoblotted for phosphotyrosine (4G10).
MM-1 and Mino (Mantle cell lymphoma) cells were treated with Degrasyns with different levels of anti-tumor efficacy (at the concentration indicated) for 2 h before cell lysates were prepared and equal protein aliquots were resolved by SDS-PAGE and immunoblotted for phosphotyrosine (4G10).
MM-1 cells were treated as indicated before analysis of cellular tyrosine phosphorylation by immunoblotting. Both p70 and p55 were tyrosine phosphorylated after 15 min of Degrasyn treatment which peaks in intensity after 1 h and remains higher than control levels after 4 h. These early changes may underlie or be a marker of Degrasyn activity in B-cell malignancies.
as §3

T2 sequence (P01106 16-454 limits assumed): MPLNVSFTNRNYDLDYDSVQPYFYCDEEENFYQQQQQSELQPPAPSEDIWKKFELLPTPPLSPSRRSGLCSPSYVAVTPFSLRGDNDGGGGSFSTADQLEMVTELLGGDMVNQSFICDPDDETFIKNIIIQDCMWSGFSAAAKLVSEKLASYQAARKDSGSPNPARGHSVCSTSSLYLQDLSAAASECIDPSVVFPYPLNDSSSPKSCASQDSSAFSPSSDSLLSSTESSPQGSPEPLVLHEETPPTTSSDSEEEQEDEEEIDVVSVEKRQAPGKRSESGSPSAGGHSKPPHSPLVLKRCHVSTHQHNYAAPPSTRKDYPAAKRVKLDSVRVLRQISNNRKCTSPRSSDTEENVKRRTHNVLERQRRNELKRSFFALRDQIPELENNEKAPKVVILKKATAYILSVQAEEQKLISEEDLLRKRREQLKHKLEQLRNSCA
T1 sequence (P06748 whole entry): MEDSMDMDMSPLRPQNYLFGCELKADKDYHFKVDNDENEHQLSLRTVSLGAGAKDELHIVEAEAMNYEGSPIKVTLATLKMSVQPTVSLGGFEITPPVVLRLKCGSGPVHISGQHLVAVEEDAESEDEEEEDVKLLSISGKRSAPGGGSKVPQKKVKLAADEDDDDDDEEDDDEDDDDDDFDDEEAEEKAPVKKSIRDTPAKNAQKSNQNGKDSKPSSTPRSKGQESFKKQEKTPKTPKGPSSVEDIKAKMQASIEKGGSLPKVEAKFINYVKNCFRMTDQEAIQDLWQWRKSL

Interaction with NPM [1]: recovered NPM from cell lysates | c-myc protein levels ([3]; FIG. 21, 1 h): reduced c-myc protein levels
Compound: 2-Propenamide, 2-cyano-3-(3-bromo 2-pyridinyl)-N-(2-phenyl-2-ethylene)-1-biotinyl ester-(E) [Bio-Degrasyn]
IC50 [2]: 5.6 µM | IC50 ([4]; FIG. 21, anti-tumor activity, read-out: IC50 for MM-1 cells): 3.8 µM | Reduction of anti-tumor activity by biotinylation ([4]; MM-1 and K562 cells, relative to Degrasyn): ~2 fold

Compound: CC(C)C[C@@H](C=O)NC(=O)[C@H](CC(C)C)NC(=O)[C@H](CC(C)C)NC(=O)OCc1ccccc1 [MG132, reference compound] (Cbz-Leu-Leu-Leu-aldehyde)
Effect of inhibitor pretreatment on Degrasyn-mediated c-myc protein reduction [3]: block Degrasyn-mediated c-myc protein reduction

Compound: CC(C)C[C@H](NC(=O)[C@H](Cc1ccccc1)NC(=O)c1cnccn1)B(O)O [PS341, reference compound]
Effect of inhibitor pretreatment on Degrasyn-mediated c-myc protein reduction [3]: block Degrasyn-mediated c-myc protein reduction

Compound: N#C/C(=C\c1cccc(Br)n1)C(=O)NC(c1ccccc1)C1CC1 (stereo not drawn) [BDT-16]
Tyrosine phosphorylated protein species (~70 kDa, ~55 kDa) [5]: more potently stimulates tyrosine phosphorylation | Anti-tumor activity relative to WP1130 ([4]; FIG. 28): greater anti-tumor activity than WP1130
